Inconclusive results are not listed. The source made the active and inactive calls. The rule behind the calls is not given here.
system: C. albicans CaCi-8 + fluconazole, Alamar Blue growth, 48 h; test: resistant C. albicans growth inhibition with fluconazole, dose response, CaCi-8 strain, Alamar Blue fluorescence (AID 2423)

| Structure (SMILES) | EC50 |
| --- | --- |
| COc1cccc(/C=N/Nc2ccc([N+](=O)[O-])cn2)c1O | 1500 nM |
| COc1ccc(CCNc2ncnc3sc(C)cc23)cc1OC | 1610 nM |
| Cc1ccc(O)c(-c2cc(-c3cccc(Br)c3)n[nH]2)c1 | 6710 nM |
| CC(C)c1ccc2oc(-c3ccc(NC(=O)c4ncn[nH]4)cc3)nc2c1 | > 16000 nM (inactive) |
| Cc1onc(-c2c(F)cccc2Cl)c1C(=O)NNC(=O)C1CCN(Cc2ccccc2)CC1 | > 15000 nM (inactive) |
| CC(C)Cc1nc2oc3c(=O)[nH]cnc3c2c2c1CCCC2 | 297 nM |
| Cn1c(N/N=C/c2c[nH]c3ccccc23)nc2ccccc21 | 6030 nM |
| O=C(COc1ccc2c(c1)CCC2)NCc1cccc(Cl)c1 | 10900 nM |
| Oc1ccc(Br)cc1/C=N/Nc1ccccn1 | 2590 nM |
| CCCn1c(N)c(C(=O)COC(=O)c2c(C)noc2C)c(=O)n(C)c1=O | > 15000 nM (inactive) |
| Cc1ccnc(Sc2ccc([N+](=O)[O-])cc2[N+](=O)[O-])n1 | 964 nM |
| CC1=C/C(=N\NC(=S)NCCc2ccccc2)CC(C)(C)C1 | > 15000 nM (inactive) |
| O=C(COc1ccc(Cl)cc1Cl)N1CCCN(C(=O)COc2ccc(Cl)cc2Cl)CC1 | 1480 nM |
| Cc1c(Cl)ccc2c1NC(=O)[C@]21N[C@@H](Cc2ccccc2)[C@H]2C(=O)N(c3ccc(F)cc3)C(=O)[C@H]21 | < 120 nM |
| CCn1nc(/C=C/c2ccccc2)nc2c(=O)n(C)c(=O)nc1-2 | 323 nM |
| Cc1nn(-c2ccccc2)c(C)c1C(=O)Nc1nnc(-c2ccco2)o1 | 421 nM |
| Cc1c(CCOC(=O)CC23CC4CC(CC(C)(C4)C2)C3)sc[n+]1Cc1ccc([N+](=O)[O-])cc1 | 11900 nM |
| COC(=O)[C@@H]1CCCN1Cc1nc(Cc2ccccc2F)no1 | > 16000 nM (inactive) |
| Cc1ccc(O)c(C(=O)CC(=O)c2ccccc2Cl)c1 | 1570 nM |
| CCC(C)(C)c1ccc(OCCCC[n+]2ccc(C)cc2)c(C(C)(C)CC)c1 | > 16000 nM (inactive) |
| Cc1cc(Sc2nc(N)ncc2[N+](=O)[O-])ncn1 | 2150 nM |
| C=C(C)CSc1[nH]c(=O)cc(C)c1C#N | 1250 nM |
| CCN(CC)S(=O)(=O)c1ccc(N/N=C/c2ccc(O)cc2O)nc1 | 644 nM |
| CN(CCCNC(=O)CCCOc1cc(=O)n(C)c2ccccc12)Cc1ccccc1 | > 16000 nM (inactive) |
| COc1cccc(/C=N/Nc2cc(-n3nc(C)cc3-c3ccccc3)ncn2)c1O | 662 nM |
| Cc1cc(C)nc(NS(=O)(=O)c2ccc(NC(=O)COc3ccccc3)cc2)n1 | > 15000 nM (inactive) |

| Structure (SMILES) | EC50 |
| --- | --- |
| CCOC(=O)c1sc(N2C(=O)C(O)=C(C(=O)c3ccco3)C2c2cccc(Cl)c2)nc1C (configuration not stated) | 597 nM |
| COc1ccc(C(=O)NC(=S)NNC(=O)CCc2ccccc2)cc1 | 3200 nM |
| CCN(CC)c1cccc(OC2=NS(=O)(=O)c3ccccc32)c1 | 11000 nM |
| C/C(=N\NC(=O)CSCc1ccccc1Cl)c1cc(O)ccc1O | > 16000 nM (inactive) |
| Cc1ccc(Nc2nc(CSc3nnc(-c4ccncc4)n3-c3ccccc3C)cs2)cc1 | > 16000 nM (inactive) |
| CCOc1ccc(C(Nc2cccnc2)c2cc(Cl)c3cccnc3c2O)cc1 (configuration not stated) | 930 nM |
| O=C(Nc1nnc(-c2ccco2)o1)c1cccc(Cl)c1 | 859 nM |
| O=C(O)c1ccc(-c2nc(-c3ccc(Cl)cc3)cs2)cc1 | 3420 nM |
| Cc1ccc2nc(-c3ccccc3Cl)cc(C(=O)Nc3cc(C)on3)c2c1 | 505 nM |
| CS/C(=N\S(=O)(=O)c1cccs1)Nc1ccc(Cl)cc1 | 1200 nM |
| O=c1c2ccc(Cl)cc2nc(-c2cccc(C(F)(F)F)c2)n1O | 832 nM |
| COc1ccc(-n2nc(C(=O)NCC(=O)NCCC3=CCCCC3)c3ccccc3c2=O)c(OC)c1 | 232 nM |
| O=C(CSCc1ccc(Cl)cc1)Nc1cc([N+](=O)[O-])ccc1O | > 15000 nM (inactive) |
| Cc1ccsc1/C=N/NS(=O)(=O)c1ccc([N+](=O)[O-])cc1 | 7370 nM |
| O=[N+]([O-])c1cccc(C=Nc2cccc3ccccc23)c1O | 12200 nM |
| CCOc1ccc(CN(C(=O)c2oc3ccccc3c2C)C2CCS(=O)(=O)C2)cc1 (configuration not stated) | > 16000 nM (inactive) |
| CNC(=O)Nc1cc(C(F)(F)F)cc(C(F)(F)F)c1 | 742 nM |
| CCCn1nc([N+](=O)[O-])c(C(C#N)c2nc3ccccc3s2)c(Cl)c1=O (configuration not stated) | 1400 nM |
| O=C(N/N=C/c1sc(N2CCOCC2)nc1-c1ccccc1)c1cccc(S(=O)(=O)N2CCCC2)c1 | 2160 nM |
| CC(C)CC(=O)NC(c1cccs1)c1ccc2cccnc2c1O (configuration not stated) | 867 nM |
| COc1ccc(C(=O)NNC(=S)NC(=O)c2cccc([N+](=O)[O-])c2)cc1 | 1800 nM |
| Cc1ccc(/C=C/C(=O)c2ccccc(=O)c2O)cc1C | 2720 nM |
| CC1(C)CC(=O)C2=C(C1)c1c(ccc3ccccc13)NC2c1cc([N+](=O)[O-])cc([N+](=O)[O-])c1O (configuration not stated) | > 15000 nM (inactive) |
| Nc1cc(N)nc(SCc2cccc(F)c2)n1 | > 15000 nM (inactive) |
| COc1cccc2c(SCC(=O)N/N=C/c3ccc(O)c(O)c3)cc(C)nc12 | > 16000 nM (inactive) |
| O=S(=O)(O)c1cc(O)c2c(O)c(N=Nc3cc(Cl)ccc3O)c(S(=O)(=O)O)cc2c1 | 7520 nM |

| Structure (SMILES) | EC50 |
| --- | --- |
| CCOC(=O)c1c(-c2ccccc2)oc2ccc(OCC(O)CN(C)C)cc12 (configuration not stated) | 1290 nM |
| COc1cc(SC)ccc1C(=O)OCC(=O)NC1CC1 | > 15000 nM (inactive) |
| CCCCOc1ccc(-c2cc(C(=O)NNC(=S)NCC)c3ccccc3n2)cc1 | 1060 nM |
| CCOC(=O)CNC(=O)c1sc2ncnc(N3CCc4ccccc4C3)c2c1C | 4560 nM |
| Cc1c(O)cc2n(c1=O)-c1ccc(Cl)cc1C2(C)C | 332 nM |
| O=C(NCCNC(=O)C(c1ccccc1)c1ccccc1)c1ccco1 | > 15000 nM (inactive) |
| Clc1ccc(OCCn2ccnc2)c2ccccc12 | 2910 nM |
| N#C/C(=C\c1ccc(OC(=O)c2cccs2)cc1)c1nc2ccccc2[nH]1 | 3210 nM |
| CCn1c(C)nc2cc(C(=O)N/N=C/c3ccc(O)c(O)c3O)ccc21 | 989 nM |
| O=C(N/N=C/c1ccc(O)c2ncccc12)c1cccc(Br)c1 | 1200 nM |
| CCOC(=O)c1ccc(NC(=O)c2ccc(CO)c(C(=O)NC3CCN(C(=O)OCC)CC3)c2)cc1 | > 16000 nM (inactive) |
| CCCCCCCSc1nc(N)cc(=O)[nH]1 | 5940 nM |
| CCOCCCNC(=O)c1ccc(N(C)S(=O)(=O)c2ccc(OC)cc2)cc1 | > 16000 nM (inactive) |
| CCC(Oc1ccccc1)C(=O)Nc1ncc([N+](=O)[O-])s1 (configuration not stated) | > 16000 nM (inactive) |
| Brc1ccc(/C=C/C=N/Nc2nc3ccccc3s2)cc1 | > 16000 nM (inactive) |
| NNC(=O)c1cc(-c2cccs2)nc2ccccc12 | > 15000 nM (inactive) |
| Cc1cccc(C)c1OCC(=O)NNC(=S)NC(=O)C1CC1 | 950 nM |
| CCOC(=O)N1C(=O)C2(CCCCC2)N(c2ccccc2Cl)C1=S | 1990 nM |
| Cc1c(CCOC(=O)C23CC4(C)CC(C)(CC(C)(C4)C2)C3)sc[n+]1CC(=O)c1ccccc1 | > 15000 nM (inactive) |
| CCNC(=S)NNC(=O)c1cc(-c2cc(C)ccc2C)nc2ccccc12 | 134 nM |
| CC(C)(C)c1ccc(C(=O)CC(=O)c2cc(Cl)ccc2O)cc1 | 4770 nM |
| O=[N+]([O-])c1cccnc1S(=O)(=O)c1ccccc1 | 865 nM |
| O=[N+]([O-])c1ccc(N2CCN(Cc3ccc([N+](=O)[O-])o3)CC2)cc1 | 1650 nM |
| CCCCN(C)S(=O)(=O)c1ccc(C(=O)Nc2nnc(-c3cccs3)o2)cc1 | > 15000 nM (inactive) |
| CCOC(=O)c1ccc(-c2ccc(C3Nc4ccccc4C(=O)N3O)o2)cc1 (configuration not stated) | 5630 nM |
